Results on 18 compounds are retold here after patent publication US20180362543A1, “HIV REPLICATION INHIBITOR” (Shionogi & Co., Ltd., priority 2013, published 2018).

SMILES strings stand for the structures. pEC50, pIC50: −log10 of the molar value.

Data set [1] concerns Salmonella typhimurium TA98 strain, TA100 strain. The following applies: Salmonella typhimurium TA98 and TA100, with and without metabolism activating condition. The method, then:
The mutagenicity of the compound of the present invention was assayed.
20 μL of freezing-stored rat typhoid bacillus (Salmonella typhimurium TA98 strain, TA100 strain) was inoculated on 10 mL of a liquid nutrient medium (2.5% Oxoid nutrient broth No. 2), and this was cultured before shaking at 37° C. for 10 hours. 9 mL of a bacterial solution of the TA98 strain was centrifuged (2000×g, 10 minutes) to remove a culturing solution. The bacteria was suspended in F buffer (K2HPO4: 3.5 g/L, KH2PO4: 1 g/L, (NH4)2SO4: 1 g/L, trisodium citrate dehydrate: 0.25 g/L, MgSO4.7H2O: 0.1 g/L), and the suspension was added to 110 mL of an Exposure medium (Micro F buffer containing Biotin: 8 μg/mL, histidine: 0.2 μg/mL, glucose: 8 mg/mL). The TA100 strain was added to 120 mL of the Exposure medium per 3.16 mL of the bacterial solution to prepare a test bacterial solution. […] Since a well containing a bacterium which has obtained the proliferation ability by mutation of an amino acid (histidine) synthesizing enzyme gene turns from purple to yellow due to a pH change, the bacterium proliferation well which has turned to yellow in 48 wells per dose is counted, and was assessed by comparing with a negative control group. […]

Data set [2] addresses T1, CYP2D6 (Homo sapiens, UniProt P10635).
T1 construct: enzyme, pooled human hepatic microsome 0.2 mg protein/mL; from tissue; host or cells: pooled human liver microsomes
The data set can be described thus: CYP inhibition assay, CYP2D6 (dextromethorphan O-demethylation). The following applies: pooled human hepatic microsome, 15 minutes, 37° C. It is filed as in vitro ADME. The method, then:
(§1) Using commercially available pooled human hepatic microsome, and employing, as markers, 7-ethoxyresorufin O-deethylation (CYP1A2), tolbutamide methyl-hydroxylation (CYP2C9), mephenytoin 4′-hydroxylation (CYP2C19), dextromethorphan O-demethylation (CYP2D6), and terfenedine hydroxylation (CYP3A4) as typical substrate metabolism reactions of human main five CYP enzyme forms (CYP1A2, 2C9, 2C19, 2D6, 3A4), an inhibitory degree of each metabolite production amount by a test compound was assessed. […]
(§2) Each five kinds of substrates, human hepatic microsome, and a test drug in 50 mmol/L Hepes buffer as a reaction solution was added to a 96-well plate as the composition as described above, NADPH, as a cofactor was added to initiate metabolism reactions as markers and, after the incubation at 37° C. for 15 minutes, a methanol/acetonitrile=1/1 (v/v) solution was added to stop the reaction. After the centrifugation at 3000 rpm for 15 minutes, resorufin (CYP1A2 metabolite) in the supernatant was quantified by a fluorescent multilabel counter and tolbutamide hydroxide (CYP2C9 metabolite), mephenytoin 4′ hydroxide (CYP2C19 metabolite), dextrorphan (CYP2D6 metabolite), and terfenadine alcohol (CYP3A4 metabolite) were quantified by LC/MS/MS. […]

In data set [3] the target is T2, CYP2C19 (Homo sapiens, UniProt P33261).
T2 construct: enzyme, pooled human hepatic microsome 0.2 mg protein/mL; from tissue; host or cells: pooled human liver microsomes
T2 sequence (P33261 whole entry): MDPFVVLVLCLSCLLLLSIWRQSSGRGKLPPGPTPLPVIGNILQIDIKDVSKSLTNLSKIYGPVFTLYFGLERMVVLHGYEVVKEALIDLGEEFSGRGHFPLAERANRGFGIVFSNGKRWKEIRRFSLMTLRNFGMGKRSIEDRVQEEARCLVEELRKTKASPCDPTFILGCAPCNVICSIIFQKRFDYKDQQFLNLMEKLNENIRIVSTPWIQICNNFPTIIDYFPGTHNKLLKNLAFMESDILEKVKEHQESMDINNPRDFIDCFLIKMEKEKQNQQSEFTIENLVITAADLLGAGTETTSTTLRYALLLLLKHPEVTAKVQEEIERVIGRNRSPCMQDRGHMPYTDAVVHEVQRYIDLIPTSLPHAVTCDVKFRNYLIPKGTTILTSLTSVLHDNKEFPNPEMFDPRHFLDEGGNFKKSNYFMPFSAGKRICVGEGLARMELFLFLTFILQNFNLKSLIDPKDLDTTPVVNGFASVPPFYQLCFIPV
The data set can be described thus: CYP inhibition assay, CYP2C19 (mephenytoin 4'-hydroxylation). As to conditions: pooled human hepatic microsome, 15 minutes, 37° C. It is filed as in vitro ADME. On the procedure:
as §1, §2

Data set [4] can be described thus: Solubility test (1% DMSO, artificial intestinal juice pH 6.8). It is filed as physicochemical. The following applies: pH 6.8, 1% DMSO, 16 hours at 25° C. On the procedure: The solubility of each compound was determined under 1% DMSO addition conditions. A 10 mmol/L solution of the compound was prepared with DMSO, and 6 μL of the solution was added to 594 μL of an artificial intestinal juice (:water and a 118 mL solution of 0.2 mol/L NaOH reagent are added to 250 mL of 0.2 mol/L potassium dihydrogen phosphate reagent to reach 1000 mL) with a pH of 6.8. The mixture is left standing for 16 hours at 25° C., and the mixture is vacuum-filtered. The filtrate is two-fold diluted with methanol/water=1/1 (v/v), and the compound concentration in the filtrate is measured with HPLC or LC/MS/MS by the absolute calibration method.

Data set [5] deals with T3, CYP1A2 (Homo sapiens, UniProt P05177).
T3 construct: enzyme, pooled human hepatic microsome 0.2 mg protein/mL; from tissue; host or cells: pooled human liver microsomes
T3 sequence (P05177 1-516): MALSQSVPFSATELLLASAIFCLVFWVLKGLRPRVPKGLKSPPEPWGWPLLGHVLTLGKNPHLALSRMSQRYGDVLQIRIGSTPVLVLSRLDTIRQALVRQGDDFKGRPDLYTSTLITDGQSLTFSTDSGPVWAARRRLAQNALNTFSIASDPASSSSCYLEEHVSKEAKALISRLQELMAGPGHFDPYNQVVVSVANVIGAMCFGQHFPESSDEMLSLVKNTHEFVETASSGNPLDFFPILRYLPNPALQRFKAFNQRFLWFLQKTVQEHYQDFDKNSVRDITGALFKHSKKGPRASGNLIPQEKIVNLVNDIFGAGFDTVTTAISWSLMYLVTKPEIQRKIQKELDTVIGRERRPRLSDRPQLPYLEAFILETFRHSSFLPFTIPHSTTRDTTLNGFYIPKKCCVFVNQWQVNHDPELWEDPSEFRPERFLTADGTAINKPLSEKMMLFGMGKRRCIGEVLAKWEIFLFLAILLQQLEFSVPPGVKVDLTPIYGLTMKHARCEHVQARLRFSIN
Nature of the data set: CYP inhibition assay, CYP1A2 (7-ethoxyresorufin O-deethylation). It is filed as in vitro ADME. As to conditions: pooled human hepatic microsome, 15 minutes, 37° C. The method, then: as §1, §2

In data set [6] the target is T4, CYP3A4 (Homo sapiens, UniProt P08684).
T4 construct: enzyme, pooled human hepatic microsome 0.2 mg protein/mL; from tissue; host or cells: pooled human liver microsomes
T4 sequence (P08684 whole entry): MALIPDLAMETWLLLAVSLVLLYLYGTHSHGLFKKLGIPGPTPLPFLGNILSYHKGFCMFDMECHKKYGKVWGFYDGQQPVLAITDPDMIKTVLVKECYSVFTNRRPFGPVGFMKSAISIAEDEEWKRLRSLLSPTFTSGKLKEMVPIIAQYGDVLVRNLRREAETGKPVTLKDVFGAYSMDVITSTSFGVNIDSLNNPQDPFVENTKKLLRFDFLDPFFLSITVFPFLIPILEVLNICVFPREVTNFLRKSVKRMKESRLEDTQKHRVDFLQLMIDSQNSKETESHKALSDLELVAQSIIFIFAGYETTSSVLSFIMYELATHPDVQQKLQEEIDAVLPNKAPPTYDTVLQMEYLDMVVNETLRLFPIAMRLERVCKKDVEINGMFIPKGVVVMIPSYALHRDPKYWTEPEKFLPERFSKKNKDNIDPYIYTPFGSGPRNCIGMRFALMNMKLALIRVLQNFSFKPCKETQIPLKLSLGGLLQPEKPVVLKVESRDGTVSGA
Nature of the data set: CYP inhibition assay, CYP3A4 (terfenedine hydroxylation). It is filed as in vitro ADME. The following applies: pooled human hepatic microsome, 15 minutes, 37° C. The method, then: as §1, §2

For data set [7], the system named is HIV (HTLV-III B strain). Nature of the data set: HIV replication inhibition assay (MTT, MT-4 cells). It is filed as cell-based. The essentials:
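MT-4 cells (2.5×10^4/well) infected with HTLV-III B stock (60 pfu) in presence of compound, cultured four days at 37 °C. Viability by MTT reduction, formazan read at 560 and 690 nm. EC50 is concentration inhibiting virus-induced cytotoxicity by 50%.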

The format of data set [8] is in vitro ADME. The following applies: 0 h.
[9] abbreviates: Human immunodeficiency virus 1, MT4, 96 h, Table A-8 (continuation of Tables A-1 to A-9), four days.
Setting [10] is: Human immunodeficiency virus 1, MT4, 96 h, Table A-9, four days.

T1 sequence (P10635 whole entry): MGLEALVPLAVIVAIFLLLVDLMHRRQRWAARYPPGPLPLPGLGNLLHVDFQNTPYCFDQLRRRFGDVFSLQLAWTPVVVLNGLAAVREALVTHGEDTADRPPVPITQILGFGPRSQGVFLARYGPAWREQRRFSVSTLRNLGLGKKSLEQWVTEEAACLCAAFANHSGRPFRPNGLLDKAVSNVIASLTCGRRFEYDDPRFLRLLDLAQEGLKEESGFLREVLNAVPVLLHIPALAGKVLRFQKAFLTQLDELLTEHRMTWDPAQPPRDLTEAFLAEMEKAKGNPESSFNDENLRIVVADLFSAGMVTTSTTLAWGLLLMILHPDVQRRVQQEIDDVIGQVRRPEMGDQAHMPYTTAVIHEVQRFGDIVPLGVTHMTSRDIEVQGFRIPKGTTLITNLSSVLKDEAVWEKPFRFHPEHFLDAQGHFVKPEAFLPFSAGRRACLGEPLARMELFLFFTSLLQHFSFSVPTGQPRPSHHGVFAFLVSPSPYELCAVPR

`Cc1c(-c2c(C)c3c(c(C)c2[C@H](OC(C)(C)C)C(=O)O)NS(=O)(=O)Cc2ccccc2-3)ccc2c1CCCO2` [Compound 10]: the mutagenicity result in data set [1] was “negative”. For the same compound, the negative-log IC50 (pIC50) in data set [2], in data set [3], in data set [5] and in data set [6] was not above 4.70 each time. The “solubility in the artificial intestinal juice” value in data set [4] was not below 50 µM. In addition, the pEC50 (in general, −log10 of the EC50, conventionally taken in molar units) in data set [7] (4 days culture, concentration at which cell cytotoxicity by virus is inhibited 50%) was 8.62. Moreover, in data set [8], the “remaining amount of compound in liver microsomes of rat” value came out at 91%.
As for `Cc1ccc(-c2c(C)c3c(c(C)c2[C@H](OC(C)(C)C)C(=O)O)N(S(C)(=O)=O)Cc2cc(C)cnc2-3)c(C)c1` [Compound 384], the negative logarithm of the EC50 (pEC50) in data set [7] (setting [9]) is 8.08.
Still for that read-out and setting: then `Cc1ccc(-c2c(C)c3c(c(C)c2[C@H](OC(C)(C)C)C(=O)O)N(S(C)(=O)=O)Cc2cnc(C(F)(F)F)cc2-3)cc1` [Compound 385], with 7.41; and `Cc1ccc(-c2c(C)c3c(c(C)c2[C@H](OC(C)(C)C)C(=O)O)N(S(C)(=O)=O)Cc2ccc(N)nc2-3)cc1` [Compound 386], with 7.07.
As for `Cc1ccc(-c2c(C)c3c(c(C)c2[C@H](OC(C)(C)C)C(=O)O)N(S(C)(=O)=O)Cc2nc(C)cc(C)c2-3)cc1` [Compound 388], the negative logarithm of the EC50 (pEC50) in data set [7] (setting [9]) is 7.54.
The same measure, in the same setting: then `COc1nc2c(cc1F)CN(S(C)(=O)=O)c1c(C)c([C@H](OC(C)(C)C)C(=O)O)c(-c3ccc(C)cc3)c(C)c1-2` [Compound 389], with 7.17.
In data set [7] (setting [9]), `Cc1ccc(-c2c(C)c3c(c(C)c2[C@H](OC(C)(C)C)C(=O)O)N(S(C)(=O)=O)Cc2cc(N(C)C)cnc2-3)cc1` [Compound 390] showed a pEC50 of 8.66.
The compound `Cc1ccc(-c2c(C)c3c(c(C)c2[C@H](OC(C)(C)C)C(=O)O)N(S(C)(=O)=O)Cc2cc(C(F)(F)F)cnc2-3)cc1` [Compound 391] had a pEC50 in data set [7] (setting [9]) of 8.39.
Still for that read-out and setting: the figure for `Cc1ccc(-c2c(C)c3c(c(C)c2[C@H](OC(C)(C)C)C(=O)O)N(S(C)(=O)=O)Cc2c(C)ccnc2-3)cc1` [Compound 392] is 7.51.
The compound `COc1cc2c(cn1)-c1c(C)c(-c3ccc(C)cc3C)c([C@H](OC(C)(C)C)C(=O)O)c(C)c1N(S(C)(=O)=O)C2` [Compound 393] gave a pEC50 in data set [7] (setting [9]) of 8.33.
In data set [7] (setting [9]), `Cc1ccc(-c2c(C)c3c(c(C)c2[C@H](OC(C)(C)C)C(=O)O)N(S(C)(=O)=O)Cc2cccc(F)c2-3)c(CO)c1` [Compound 394] had a negative logarithm of the EC50 (pEC50) of 7.57.
Regarding `Cc1ccc(-c2c(C)c3c(c(C)c2[C@H](OC(C)(C)C)C(=O)O)N(S(C)(=O)=O)Cc2ccc4c(c2-3)OCCO4)cc1` [Compound 395], the pEC50 in data set [7] (setting [9]) is 7.47.
Turning to `Cc1ccc(-c2c(C)c3c(c(C)c2[C@H](OC(C)(C)C)C(=O)O)N(S(C)(=O)=O)Cc2ccc(C(F)(F)F)nc2-3)cc1` [Compound 397], in data set [7] (setting [9]), the pEC50 was 7.48.
`Cc1ccc(-c2c(C)c3c(c(C)c2[C@H](OC(C)(C)C)C(=O)O)N(S(C)(=O)=O)Cc2cc(F)c(N(C)C)nc2-3)cc1` [Compound 398]: in data set [7] (setting [9]), the pEC50 is 7.10.
`Cc1ccc(-c2c(C)c3c(c(C)c2[C@H](OC(C)(C)C)C(=O)O)N(S(C)(=O)=O)Cc2c(F)ncc(F)c2-3)cc1` [Compound 403]: the pEC50 in data set [7] (setting [10]) is 7.84.
With `Cc1cnc2c(c1)CN(S(C)(=O)=O)c1c(C)c([C@H](OC(C)(C)C)C(=O)O)c(C3=CCC(C)(C)CC3)c(C)c1-2` [Compound 404], the pEC50 in data set [7] (setting [10]) was more than 8.11.
Still for that read-out and setting: the figure for `Cc1cnc2c(c1)CN(S(C)(=O)=O)c1c(C)c([C@H](OC(C)(C)C)C(=O)O)c(-c3ccc(Cl)cc3O)c(C)c1-2` [Compound 406] is 7.42.
Still for that read-out and setting: then `Cc1ccc(-c2c(C)c3c(c(C)c2[C@H](OC(C)(C)C)C(=O)O)N(S(C)(=O)=O)Cc2cc(Cl)cnc2-3)cc1` [Compound 407], with more than 8.11.
